This note sets out measurements from patent US4808596A, “Imidazo[4,5-b]pyridine compounds and pharmaceutical compositions containing same” (Tokyo Tanabe Company, Ltd., priority 1986, dated 1989).

In one data set the test system is Shay's ulcer. As to the kind of experiment: Inhibitory effect on Shay's ulcer. As to conditions: Rattus norvegicus; oral, rats; 30 minutes before ligation; 14 hours; read-out: Inhibitory effect on Shay's ulcer, ID50. In kind it is in vivo, male Wistar rats. The procedure:
(§1) The inhibitory effects of the present compounds [I] on various experimental ulcers were tested by using male Wistar rats, weighing about 200 g, in groups of six and determining the respective ulceration indexes for 5 types of experimental ulcers. In each test, the test compounds were suspended in a 0.5% aqueous solution of carboxymethyl cellulose and administered orally in a series of appropriately selected doses ranging from 1 to 100 mg/kg. The test procedures for 5 types of experimental ulcers were as follows:
In rats which had been fasted for 48 hours, the pyloric end of the stomach was ligated and they were maintained for 14 hours without giving any food or water. Then, each rat was sacrificed and the area of the ulcer(s) formed in the forestomach part was measured. The ulceration index was calculated on the basis of the data thus obtained. The test compounds were administered 30 minutes before ligation.
(§2) The pharmacological effect of the test compounds on each of the aforesaid experimental ulcers was evaluated on the basis of the dose (in mg/kg) required to inhibit the formation of ulcers by 50% (hereinafter referred to as ID50). The ID50 value of each test compound was determined by calculating the difference in ulceration index between the untreated group and each treated group, dividing the difference by the ulceration index of the untreated group to obtain the degree of inhibition, and constructing a dose-response curve on the basis of the data thus obtained. For purposes of comparison, the ID50 values of Omeprazole and Compounds α and β were determined in the same manner as described above and are also shown in Table 4.

In data set [1] the test system is Hydrochloric acid-ethanol ulcer. Description: Inhibitory effect on hydrochloric acid-ethanol ulcer. Conditions: Rattus norvegicus; oral, rats; 30 minutes before hydrochloric acid-ethanol; 1 hour; read-out: Inhibitory effect on Hydrochloric acid-ethanol ulcer, ID50. It is filed as in vivo, male Wistar rats. The protocol: as §1
To rats which had been fasted for 24 hours, a 150 mM hydrochloric acid-60% ethanol mixture was orally administered in an amount of 0.5 ml per 100 g of body weight. After an hour, each rat was sacrificed and the length of the ulcer(s) formed in the glandular stomach part was measured. The ulceration index was calculated on the basis of the data thus obtained. The test compounds were administered 30 minutes before administration of the hydrochloric acid-ethanol mixture.
as §2

A short description of the next data set: physchem. In kind it is physicochemical. Conditions: for remaining at 192 h: solid. The procedure:
The storage stability of the present compounds [I] was tested by allowing each test compound to stand under severe conditions (i.e., a temperature of 60° C. and a relative humidity of 75%) for 8 days and then determining its percentage of residue according to a thin-layer densitometric method (Bunseki Kagaku, Vol. 23, No. 9, p. 1016, 1974). More specifically, upon completion of the severe treatment, 100 μg of each test compound was applied to a thin-layer plate and this plate was developed with a chloroform-ethanol mixture (volume ratio 10:1). The thin-layer plate used for this purpose was a TLC Plate Aluminum Oxide 60F254 (manufactured by Merck Co.; 0.25 mm in thickness and 20 cm×20 cm in size), and it was developed over a distance of 15 cm. Then, using a Shimazu Two-wavelength Chromatoscanner CS-910 (manufactured by Shimazu Seisakusho), the resulting spot was analyzed at a wavelength of 300-315 nm.
For purposes of comparison, the percentages of residue of Omeprazole (at a measuring wavelength of 300 nm) and Compounds α and β (at a measuring wavelength of 310 nm) were determined in the same manner as described above and are also shown in Table 1.

Data set [2] deals with Water-immersion stress ulcer. Description: Inhibitory effect on water-immersion stress ulcer. As to conditions: Rattus norvegicus; oral, rats; 10 minutes before exposure to the stress; 10 hours; read-out: Inhibitory effect on Water-immersion stress ulcer, ID50. It is filed as in vivo, male Wistar rats. The procedure:
as §1
Rats which had been fasted for 15 hours were immobilized in stress cages and immersed chest-deep in a water bath at 21° C. After 10 hours, each rat was sacrificed and the length of the ulcer(s) formed in the glandular stomach part was measured. The ulceration index was calculated on the basis of the data thus obtained. The test compounds were administered 10 minutes before exposure to the stress.
as §2

For data set [3], the system named is various experimental ulcers. As to the kind of experiment: Inhibitory effects on various experimental ulcers (overall statement). The arrangement: species or system male Wistar rats. As to conditions: in vivo. The protocol:
as §1, §2

Read-outs that look alike come from different tables or passages of the source. Where only a bound is given, the exact number is not on record here.

With `COc1c(C)cnc(C[S+]([O-])c2nc3nc(OCC(F)(F)F)ccc3[nH]2)c1C` (centres unmarked) [Example 26, 2-[2-(3,5-Dimethyl-4-methoxy)pyridylmethylsulfinyl]-5-(2,2,2-trifluoroethoxy)imidazo[4,5-b]pyridine], the results for the ED50 (in the data set on Shay's ulcer; in data set [1]; in data set [2]) were 14.7 mg/kg, 7.9 mg/kg and 30.5 mg/kg, respectively. The compound also displayed a remaining at 192 h in the data set “physchem” (75% rh) of 92%.

As for `CCCCCCCOc1ccc2[nH]c([S+]([O-])Cc3ncc(C)cc3C)nc2n1` (centres unmarked) [Example 33, 2-[2-(3,5-Dimethyl)pyridylmethylsulfinyl]-5-n-heptyloxyimidazo[4,5-b]pyridine], the ED50 came to 19.2 mg/kg in the data set on Shay's ulcer, 10.3 mg/kg in data set [1] and 35.1 mg/kg in data set [2]. This compound returned a remaining at 192 h in the data set “physchem” (75% rh) of 89%.

On to `CCOc1ccc2[nH]c([S+]([O-])Cc3ncc(C)c(C)c3C)nc2n1` (centres unmarked) [Example 8, 2-[2-(3,4,5-Trimethyl)pyridylmethylsulfinyl]-5-ethoxyimidazo[4,5-b]pyridine], for which the ED50 is 15.1 mg/kg in the data set with Shay's ulcer, 8.2 mg/kg in data set [1] and 34.2 mg/kg in data set [2]. Further, the remaining at 192 h in the data set “physchem” (75% rh) is 96%.

As to `COc1cc(C[S+]([O-])c2nc3nc(OCC4CC4)ccc3[nH]2)ncc1C` (centres unmarked) [Example 13, 2-[2-(4-Methoxy-5-methyl)pyridylmethylsulfinyl]-5-cyclopropylmethyloxyimidazo[4,5-b]pyridine], the ED50 in the data set on Shay's ulcer amounted to 17.4 mg/kg; in data set [1], 9.6 mg/kg; in data set [2], 37.3 mg/kg. This compound also came in with a remaining at 192 h in “physchem” (75% rh) of 88%.

Take `COc1c(C)cnc(C[S+]([O-])c2nc3nc(OCC4CC4)ccc3[nH]2)c1C` (centres unmarked) [Example 24, 2-[2-(3,5-Dimethyl-4-methoxy)pyridylmethylsulfinyl]-5-cyclopropylmethyloxyimidazo[4,5-b]pyridine]: the ED50 was found to be 10.8 mg/kg in the data set with Shay's ulcer, 3.5 mg/kg in data set [1] and 27 mg/kg in data set [2]. Further, the remaining at 192 h in the data set “physchem” (75% rh) came to 94%.

`COc1ccc2[nH]c([S+]([O-])Cc3ncc(C)cc3C)nc2n1` (centres unmarked) [Example 1, 2-[2-(3,5-Dimethyl)pyridylmethylsulfinyl]-5-methoxyimidazo[4,5-b]pyridine]: the ED50 was found to be 11 mg/kg in the data set on Shay's ulcer, 5.1 mg/kg in data set [1] and 26.4 mg/kg in data set [2]. The compound further gave a remaining at 192 h in the data set “physchem” (75% rh) of 98%.

Take `COc1ccc2[nH]c([S+]([O-])Cc3ncc(C)c(OC)c3C)nc2c1` (centres unmarked) [Omeprazole, reference compound]: the ED50 is 30.3 mg/kg with Shay's ulcer, 13.6 mg/kg in data set [1] and 39.7 mg/kg in data set [2]. Besides, in “physchem”, the “storage stability (in words)” value is given as “undergoes a higher degree of deterioration than might be expected”. The remaining at 192 h in “physchem” (after treatment at 60° C. and 75% RH for 8 days, read-out: Storage stability, Percentage of residue) turned out to be 3%.

Turning to `COc1c(C)cnc(C[S+]([O-])c2nc3ncc(C)cc3[nH]2)c1C` (stereo not drawn) [Compound β, 2-[2-(3,5-dimethyl-4-methoxy)pyridylmethylsulfinyl]-6-methylimidazo[4,5-b]-pyridine, reference compound], in data set [3], the “inhibitory effects on various experimental ulcers (in words)” value is reported as “not satisfactorily reflected in the in vivo tests”. Further, the ED50 stood at 42 mg/kg in the data set on Shay's ulcer, 25.4 mg/kg in data set [1] and 63.3 mg/kg in data set [2]. Besides, in the data set “physchem”, the “storage stability (in words)” value is listed as “defective in storage stability”. In the data set “physchem” (75% rh), this compound came in with a remaining at 192 h of 9%.

Take `COc1c(C)cnc(C[S+]([O-])c2nc3ncc(Br)cc3[nH]2)c1C` (stereo not drawn) [Compound α, 2-[2-(3,5-dimethyl-4-methoxy)pyridylmethylsulfinyl]-6-bromoimidazo[4,5-b]pyridine, reference compound]: in data set [3], the “inhibitory effects on various experimental ulcers (in words)” value is listed as “not satisfactorily reflected in the in vivo tests”. Further, the ED50 in the data set on Shay's ulcer was ≥ 100 mg/kg; in data set [1], 63.3 mg/kg; in data set [2] it was ≥ 100 mg/kg. Also, the “storage stability (in words)” value in “physchem” is “defective in storage stability”. Further, the remaining at 192 h in the data set “physchem” (75% rh) came to 0%.
